Data reported in the NIST ThermoML archive (doi:10.1021/je100148h).
Where “and” joins values, the source holds several entries; their conditions need not be identical. Identical values can stand only once.

Conditions: Burnett expansion method

[Ar] [argon]
Gas
Conditions	mass density
318.75 K, 217.45 kPa	3.2819 kg/m3 and 3.2809 kg/m3
318.75 K, 299.59 kPa	4.5227 kg/m3 and 4.5217 kg/m3
318.75 K, 412.69 kPa	6.2318 kg/m3 and 6.2327 kg/m3
318.75 K, 568.39 kPa	8.5885 kg/m3 and 8.5891 kg/m3
318.75 K, 782.65 kPa	11.8364 kg/m3 and 11.8363 kg/m3
318.75 K, 1077.3 kPa	16.3128 kg/m3 and 16.3112 kg/m3
318.75 K, 2800.7 kPa	42.6996 kg/m3 and 42.685 kg/m3
318.75 K, 3845.5 kPa	58.8449 kg/m3 and 58.8199 kg/m3
318.75 K, 5275.1 kPa	81.0918 kg/m3 and 81.0507 kg/m3
318.75 K, 7231.5 kPa	111.747 kg/m3 and 111.681 kg/m3
318.76 K, 157.82 kPa	2.3805 kg/m3 and 2.3815 kg/m3
318.76 K, 1482.3 kPa	22.4815 kg/m3 and 22.4774 kg/m3
318.76 K, 2038.2 kPa	30.9829 kg/m3 and 30.9748 kg/m3

O=C=O [carbon dioxide]
343.13 K, Fluid (supercritical or subcritical phases)
Conditions	mass density
214.49 kPa	3.3311 kg/m3 and 3.3345 kg/m3
295.01 kPa	4.5929 kg/m3 and 4.5951 kg/m3
405.34 kPa	6.3329 kg/m3 and 6.3325 kg/m3
556.21 kPa	8.7319 kg/m3 and 8.7265 kg/m3
761.77 kPa	12.0399 kg/m3 and 12.0258 kg/m3
1040.8 kPa	16.6004 kg/m3 and 16.5719 kg/m3
1417 kPa	22.8886 kg/m3 and 22.8367 kg/m3
1919.8 kPa	31.5581 kg/m3 and 31.4693 kg/m3
2584.2 kPa	43.5107 kg/m3 and 43.3646 kg/m3
3447.3 kPa	59.9881 kg/m3 and 59.7539 kg/m3
4543 kPa	82.704 kg/m3 and 82.3364 kg/m3
5888.2 kPa	114.017 kg/m3 and 113.448 kg/m3
7469.2 kPa	157.178 kg/m3 and 156.31 kg/m3
